In paper PMC3235552, “Fragment library screening reveals remarkable similarities between the G protein-coupled receptor histamine H4 and the ion channel serotonin 5-HT3A” (Bioorganic & Medicinal Chemistry Letters, 2011):
Marks after values point to notes of the source that are not given here.

Legend:
human 5-HT3AR = target: T1, human 5-HT3AR (Homo sapiens, UniProt P46098); test: 5-HT3AR radioligand displacement of [3H]granisetron, HEK293 membranes; assay type: binding; settings: for Affinity (pKi) 5-HT3AR: displacement of [3H]granisetron, membranes of HEK293 cells expressing human 5-HT3AR, mean ± SEM, at least two measurements, n.a. = non active
T1 construct: transfected with the human 5-HT3A subunit (PDB ID: P46098) in pcDNA3.1; expressed in transfected cells; cDNA in pcDNA3.1
T1 sequence (P46098 24-478): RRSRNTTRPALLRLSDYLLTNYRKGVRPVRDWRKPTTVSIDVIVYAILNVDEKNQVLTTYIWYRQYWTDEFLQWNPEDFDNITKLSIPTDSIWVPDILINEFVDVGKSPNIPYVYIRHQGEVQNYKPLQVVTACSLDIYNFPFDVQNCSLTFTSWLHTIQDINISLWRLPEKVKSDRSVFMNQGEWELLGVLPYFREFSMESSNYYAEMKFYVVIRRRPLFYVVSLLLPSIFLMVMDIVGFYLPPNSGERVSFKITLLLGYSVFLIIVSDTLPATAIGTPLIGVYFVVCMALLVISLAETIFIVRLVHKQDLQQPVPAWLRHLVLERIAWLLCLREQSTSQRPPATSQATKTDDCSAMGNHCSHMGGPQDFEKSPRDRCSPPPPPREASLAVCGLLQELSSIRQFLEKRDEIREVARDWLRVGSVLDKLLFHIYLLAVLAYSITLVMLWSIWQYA
Method: For the 5-HT3AR we performed a high throughput functional fragment screen[18] using a fluorescent readout (Flex Station) applying a fluorescent membrane potential dye. […] From this fragment screening we identified 70 hits for the 5-HT3A receptor (hit rate: 7%). Fragments were screened at a concentration of 100 μM using stably expressed human 5-HT3AR in HEK293 cells. Binding affinities of hits were determined using radioligand binding studies measuring [^3H]granisetron binding using membranes of HEK293 cells expressing the human 5-HT3AR.[18]
5-HT3AR were expressed in HEK293 cells transfected with the human 5-HT3A subunit ([…]: P46098) in pcDNA3.1 (Invitrogen Ltd., Paisley, UK). Stably expressing cells were clonally selected with the addition of the G-418 (Sigma Aldrich Company ltd., Dorset, UK). Cells were routinely grown in 90 mm culture dishes containing Dubelco’s Modified Eagle’s Medium DMEM / Glutamax (Gibco, Invitrogen Ltd.) and passaged when 90% confluency was reached.
[picture] For radioligand binding HEK293 cells at 90% confluency were scraped into 1 ml of ice-cold HEPES buffer (10 mM, pH 7.4) and frozen. After thawing, they were washed with HEPES buffer and homogenised using a fine-bore syringe. 50 µl of cell membranes were incubated in 0.5 ml HEPES buffer containing 0.7 nM [^3H]granisetron (~ Kd) and differing concentrations of the test compound. Competition binding (8 point) was performed on at least three separate plates of transfected cells. Non-specific binding was determined using 1 mM quipazine. Reactions were incubated for at least 24 h at 4°C, to allow compounds with slow kinetics to equilibrate. Incubations were terminated by vacuum filtration using a Brandel cell harvester (Alpha Biotech Ltd., London, UK) onto GF/B filters pre-soaked in 0.3 % polyethyleneimine. Radioactivity was determined by scintillation counting using a Beckman BCLS6500 (Fullerton, California, USA). Data were fit according to the equation:
where L is the concentration of ligand present; BL is the binding in the presence of ligand concentration L; Bmin is the binding when L = 0; Bmax is the binding when L=∞, L50 is the concentration of L which gives a binding equal to (Bmax + Bmin)/2; and nH is the Hill coefficient. Ki values were estimated from IC50 values using the Cheng-Prusoff equation^5
where Ki is the equilibrium dissociation constant for binding of the unlabeled antagonist, IC50 is the concentration of antagonist that blocks half the specific binding, [L] is the free concentration of radioligand and Kd is the equilibrium dissociation constant of the radioligand.

human H4R [1] = target: T2, human H4R (Homo sapiens, UniProt Q9H3N8); test: H4R radioligand displacement of [3H]histamine, HEK293 membranes; assay type: binding; parameters: expressed in transfected cells; host or cells: HEK293T (main text: HEK293), transient transfection with polyethyleneimine; settings: for Affinity (pKi) H4R: displacement of [3H]histamine, membranes of HEK293 cells transiently expressing human H4R, mean ± SEM, at least three measurements, n.a. = non active
Method: For the H4R fragment screen a radioligand displacement study was performed at a 10 μM fragment concentration. Hits were assigned when the fragment displaced 50% or more of the radioligand, resulting in 56 hits (hit rate: 6%). Radioligand binding was measured by displacement of [^3H]histamine using membranes of HEK293 cells transiently expressing the human H4R.[17] For the hit compounds, affinities were determined by subsequent radioligand displacement studies.
The H4R radioligand displacement screen was performed on homogenized HEK293T cells transiently expressing the human H4R. To this end, cells were transfected with 1.25 µg H4R plasmid per million cells using the 25-kDa linear polyethyleneimine. Two days after transfection, cells were collected, washed in PBS, and stored as pellets at -20 °C. Pellets were dissolved in binding buffer and homogenized using a teflon/glass followed by sonification for 3s. Cell homogenates were incubated in 96 well plates with 10µM (final) fragment and 10nM [^3H]-histamine (13.4 Ci/mmol, Perkin Elmer) and for 1.5 hours at room temperature on a table shaker (750rpm). Incubations were terminated by rapid filtration through polyethyleneimene-coated GF/C (Perkin Elmer) filter plates. Bound radioactivity was quantified in a Wallac microbeta counter (Perkin Elmer).

human H4R [2] = target: T2, human H4R; test: H4R radioligand binding, membranes of SK-N-MC cells; parameters: expressed in transfected cells; settings: membranes of SK-N-MC cells transiently expressing human H4R; mean ± SEM, at least three measurements
H4R = target: H4R; parameters: method as in PMID 18983139, PMID 19413570; settings: Abbott H4R ligands; cited from earlier work

Compound	Affinity (pKi) 5-HT3AR (human 5-HT3AR)	Affinity (pKi) H4R (human H4R [1])	also measured
c1ccc(CNCCc2c[nH]cn2)cc1 [compound 2]	–	6.2 ± 0.1	–
CN1CCN(c2ccc3cc(Cl)ccc3n2)CC1 [compound 7]	6.6 ± 0.3	6.2 ± 0.0	affinities for 5-HT3R and H4R compared (human 5-HT3AR; from affinities of Table 1): comparable affinities
c1cncc(Cc2c[nH]cn2)c1 [compound 1]	–	7.0 ± 0.1	–
CN1CCN(c2nc3ccccc3nc2O)CC1 [compound 8]	7.9 ± 0.3	7.2 ± 0.0	affinities for 5-HT3R and H4R compared (human 5-HT3AR; from affinities of Table 1): comparable affinities
Nc1nc2c(c(N3CCNCC3)n1)CCCc1ccccc1-2 [compound 13]	–	–	H4R pKi (H4R): 7.1
Clc1ccc(C2CCNC2)cc1 (stereo not shown) [compound 4]	6.1 ± 0.2	–	–
CN1CCN(c2cc(-c3ccccc3)ncn2)CC1 [compound 3]	–	6.7 ± 0.0	–

Further lines, with some results ahead:

Affinity (pKi) 5-HT3AR (human 5-HT3AR)	Compound	Affinity (pKi) H4R (human H4R [1])	also measured
6.1 ± 0.1	N=C(N)NCCCc1ccccc1 [compound 6]	–	–
5.9 ± 0.3	c1nc(CC2CCCCC2)c[nH]1 [compound 11]	–	affinities for 5-HT3R and H4R compared (human 5-HT3AR; from affinities of Table 1): comparable affinities; Affinity (pKi) H4R (human H4R [2]): 6.2 ± 0.1 ^b
5.9 ± 0.1	CN1CCN(c2cc(-c3ccccc3)nc(N)n2)CC1 [compound 10]	8.2 ± 0.1	selectivity for H4R over 5-HT3R (human H4R [1]; from affinities of Table 1): 200 fold
8.8 ± 0.1	CN1CCC(=Cc2nc3cc(Cl)ccc3[nH]2)CC1 [compound 9]	–	selectivity for 5-HT3R over H4R (human 5-HT3AR; from affinities of Table 1): 500 fold; Affinity (pKi) H4R (human H4R [2]): 6.1 ± 0.1 ^b
6.0 ± 0.0	Nc1ccc2cc3ccccc3nc2c1 [compound 5]	–	–
